Laboratory results from ChEMBL document CHEMBL3988442, “University of Dundee, Small-Polar-MMV Screening Library” (2021).

tested on: Leishmania donovani; experiment: Leishmania intramacrophage assay; assay type: functional, organism-based; conditions: Leishmania donovani

| Compound | IC50 [µM] |
| --- | --- |
| O=C(O)C1CCCN1c1nc(-c2ccc(Cl)c(Cl)c2)cc(C(F)(F)F)n1 (stereo not drawn) | > 50.1 |
| CC1CCCN(Cc2coc(-c3cccc(F)c3)n2)C1 (stereo not drawn) | > 50.1 |
| c1ccc(C2CCN(c3cncc(-n4cccn4)n3)CC2)cc1 | > 50.1 |
| CCC(CO)NC(=O)c1ccc2ccc(N(C)CC3CC3)n2c1 (stereo not drawn) | > 50.1 |
| Cc1nn(C)cc1-c1cc(C(F)F)nc2sc(C(N)=O)c(N)c12 | > 50.1 |
| CCn1ncc(-c2cc(C(F)F)nc3sc(C(N)=O)c(N)c23)c1C | > 50.1 |
| Cc1c(-c2cc(C(F)F)nc3sc(C(N)=O)c(N)c23)cnn1C | > 50.1 |
| CCn1cc(-c2cc(C(F)F)nc3sc(C(N)=O)c(N)c23)c(C)n1 | > 50.1 |
| O=C(O)C1CCCN1c1nc(C2CC2)cc(C(F)(F)F)n1 (stereo not drawn) | > 50.1 |
| O=C(O)C1CCCN1c1nc(-c2ccc(Cl)cc2)cc(C(F)(F)F)n1 (stereo not drawn) | > 50.1 |
| Cc1cc(C(F)(F)F)nc(N2CCN3CCCC3C2)n1 (stereo not drawn) | > 50.1 |
| Cc1ccc(-c2cc(C(F)(F)F)nc(N3CCOCC3)n2)s1 | > 50.1 |
| CCN1CCCC(O)(c2nc(C)c(CCOc3ccc(F)cc3)s2)CC1 (stereo not drawn) | > 50.1 |
| CCN1CCCC(O)(c2nc(C)c(CCOc3ccccc3F)s2)CC1 (stereo not drawn) | > 50.1 |
| CCN1CCCC(O)(c2nc(C)c(CCOc3ccccc3Cl)s2)CC1 (stereo not drawn) | > 50.1 |
| CCCC(=O)N1CCC(c2ncc3c(n2)CCNC3)CC1 | > 50.1 |
| O=C(CC1CCCCC1)N1CCC(c2ncc3c(n2)CCNC3)CC1 | > 50.1 |
| O=C(C1CCC1)N1CCC(c2ncc3c(n2)CCNC3)CC1 | > 50.1 |
| CCC(=O)N1CCC(c2ncc3c(n2)CCNC3)CC1 | > 50.1 |
| CC1CCCN(CC(=O)N2CCC(c3ncc4c(n3)CCNC4)CC2)C1 (stereo not drawn) | > 50.1 |
| O=C(CCC1CCCC1)N1CCC(c2ncc3c(n2)CCNC3)CC1 | > 50.1 |
| CC(NC(=O)Cn1ccnc1)c1ccc(OCC2CC2)c(F)c1 (stereo not drawn) | > 50.1 |
| Cc1sc2nc(C(F)(F)F)nc(N3CCN(C)CC3)c2c1C | > 50.1 |
| Cc1sc2nc(C(F)(F)F)nc(N3CCCN(C)CC3)c2c1C | 46.2 |
| Cc1sc2nc(C(F)(F)F)nc(N3CCN(S(C)(=O)=O)CC3)c2c1C | > 50.1 |
| Cc1sc2nc(C(F)(F)F)nc(N3CCC(NS(C)(=O)=O)CC3)c2c1C | > 50.1 |

| Compound | IC50 [µM] |
| --- | --- |
| CC(=O)N1CCN(c2nc(C(F)(F)F)nc3sc(C)c(C)c23)CC1 | > 50.1 |
| Cc1cnn(-c2cccc(N3CCCC3)n2)c1 | > 50.1 |
| NS(=O)(=O)NCC1(c2ccccc2Br)CC1 | > 50.1 |
| CN(c1ncnc2c1CCC2)C1CCCN(c2cccnn2)C1 (stereo not drawn) | > 50.1 |
| Cc1ccc(N2CCCC(N(C)c3ncnc4c3CCC4)C2)nn1 (stereo not drawn) | > 50.1 |
| CN(c1ncnc2sccc12)C1CCCN(c2cccnn2)C1 (stereo not drawn) | > 50.1 |
| CN(c1ncnc2c1cnn2C)C1CCCN(c2cccnn2)C1 (stereo not drawn) | > 50.1 |
| COCc1nc(CNc2cccc(-c3ncon3)c2)cs1 | > 50.1 |
| Cc1ccc(-c2ncc(CNc3cnccc3CO)s2)cc1 | > 50.1 |
| Cc1ccc(-c2ncc(CNc3cnccc3CO)s2)o1 | > 50.1 |
| OCc1ccncc1NCc1cnc(-c2ccccn2)s1 | > 50.1 |
| Cc1ncc(CNc2cnccc2CO)s1 | > 50.1 |
| CCOCCN1CCN(CC(O)c2ccc(OC)cc2)CC1 (stereo not drawn) | > 50.1 |
| COc1ccc(C(NCc2cccc(C#N)c2)C(C)C)cc1 (stereo not drawn) | > 50.1 |
| COc1ccc(C(NCc2cccc(C#N)c2)C2CC2)cc1 (stereo not drawn) | > 50.1 |
| Cc1csc(C2(NCC(O)COc3ccc(F)cc3)CCC2)n1 (stereo not drawn) | > 50.1 |
| O=C(NCc1cccnc1)C1=NN(c2ccccc2)C(=O)CN1 | > 50.1 |
| COCc1ccc(CNC(=O)C2=NN(c3ccccc3)C(=O)CN2)cc1 | > 50.1 |
| c1ccc(COC2CCN(c3cncc(-n4cccn4)n3)CC2)cc1 | > 50.1 |
| CNS(=O)(=O)c1cccc(C(C)NCc2cccc(OC)c2)c1 (stereo not drawn) | > 50.1 |
| CCS(=O)(=O)c1ccc(N2CCC(NC(=O)CCC(C)C)CC2)cc1 | > 50.1 |
| Cc1nnc(NCC2(c3ccc(Cl)cc3Cl)CCOCC2)c(C#N)c1C | > 50.1 |
| Cc1nnc(NCC2(c3ccccc3)CC2)c(C#N)c1C | > 50.1 |
| Cc1ccccc1C1(CNc2nnc(C)c(C)c2C#N)CCOCC1 | > 50.1 |
| CC(O)CN1CCN(Cc2csc(-c3ncccn3)n2)CC1 (stereo not drawn) | > 50.1 |
| CC(=O)N1CCCN(Cc2csc(-c3ncccn3)n2)CC1 | > 50.1 |

| Compound | IC50 [µM] |
| --- | --- |
| CCC(=O)N1CCC2(C=C(C(=O)N(C)C)c3ccccc32)CC1 | > 50.1 |
| Cc1ccc2c(n1)N(Cc1cccnc1)CCN(Cc1cnn(C)c1)C2 | > 50.1 |
| Cc1cc(C(F)(F)F)nc(CCNc2nc(C)nc3sccc23)n1 | > 50.1 |
| CCN1CC(C(=O)NCc2ccc3c(c2)nc(C)n3C)CCC1=O (stereo not drawn) | > 50.1 |
| CNC(=O)C1CCCN(c2nc(-c3ccco3)nc3c2CCNCC3)C1 (stereo not drawn) | > 50.1 |
| Cc1nc(N2C[C@@H](CN3CCCN(C)CC3)[C@@H](CO)C2)c2ccsc2n1 | > 50.1 |
| Cc1sc2nc(CCN)nc(N(CCN(C)C)CC3CCCO3)c2c1C (stereo not drawn) | > 50.1 |
| Cc1nc(N(Cc2ccncc2)CC2CCCO2)c2ccsc2n1 (stereo not drawn) | > 50.1 |
| CO[C@H]1[C@@H]2CC[C@H]1CN(c1nc(C)nc3sccc13)C2 | > 50.1 |
| Cc1nc2c(c(NCCc3nc4c(s3)CCCC4)n1)CCNCC2 | 44.3 |
| Cc1sc2nc(CCN)nc(N3CCS(=O)(=O)CC3)c2c1C | > 50.1 |
| COCCN(Cc1sccc1C)c1nc(C)nc2sccc12 | > 50.1 |
| C1CCc2nnc(CNc3nc(C4CC4)nc4c3CCNCC4)n2CC1 | > 50.1 |
| Cc1sc2nc(CCN)nc(N3CCN(S(C)(=O)=O)CC3)c2c1C | > 50.1 |
| CN(CCc1noc(C2CC2)n1)C(=O)CN1C(=O)COc2ccccc21 | > 50.1 |
| CCOCCN(CCOCC)c1nc(C)nc2sccc12 | > 50.1 |
| c1nc(CCNc2nc(C3CC3)nc3c2CCNCC3)c[nH]1 | > 50.1 |
| Cc1cc(C(F)(F)F)nc(N2CCN(Cc3nccn3C)CC2)n1 | > 50.1 |
| Cc1nccn1CC1CCCN(C(=O)Cc2ccsc2)C1 (stereo not drawn) | > 50.1 |
| Cc1sc2nc(CCN)nc(N3CCC(N4CCCC4)CC3)c2c1C | > 50.1 |
| CCc1nnc(CN2CCN(c3cccc(OC)c3)C(=O)C2)o1 | > 50.1 |
| COCCNc1nc2c(c(NCCc3cccs3)n1)CCNCC2 | 24.2 |
| COCc1noc(CNc2nc(C3CCCC3)nc3c2CCNCC3)n1 | > 50.1 |
| O=c1[nH]cccc1-c1nccc(C2(c3ccccc3Cl)CCNCC2)n1 | > 50.1 |
| COCCN(Cc1cnn(C)c1)c1nc(C)nc2sccc12 | > 50.1 |
| O=C1NCCCC12CCN(c1nc3c(c(C(F)(F)F)n1)CCCC3)C2 (stereo not drawn) | > 50.1 |

| Compound | IC50 [µM] |
| --- | --- |
| Cc1sc2nc(CCN)nc(N3CC(N4CCCCC4)C3)c2c1C | 23.7 |
| CCCN(CCOC)c1nc(C)nc2sccc12 | > 50.1 |
| CC(=O)NCc1nnc2n1CCN(c1nc(C)nc3sccc13)CC2 | > 50.1 |
| Cc1nc(NCc2noc(C3CCCO3)n2)c2ccsc2n1 (stereo not drawn) | > 50.1 |
| CC(C)n1ccnc1C1CCCN(c2ccccn2)C1 (stereo not drawn) | > 50.1 |
| CCc1cc(N2CCCNCC2)n2nc(C)c(C)c2n1 | > 50.1 |
| NCC1CN(c2nc(-c3ccccc3)nc3c2CCNCC3)CCO1 (stereo not drawn) | > 50.1 |
| Clc1ccccc1C1(c2ccnc(-c3ncccn3)n2)CCNCC1 | > 50.1 |
| FC(F)(F)c1nc(NC2CCCC2)c2ccccc2n1 | > 50.1 |
| Cc1cnc(N2CCCC3(CCCN(C)C3)C2)nc1 (stereo not drawn) | > 50.1 |
| Cn1ccc(C(=O)N2CCCC(Cc3cccc4ncccc34)C2)n1 (stereo not drawn) | > 50.1 |
| CN1CCCC(Cc2cncc(Br)c2)CC1 (stereo not drawn) | > 50.1 |
| CCC1CCCN(Cc2nc(N)c3ccccc3n2)C1 (stereo not drawn) | > 50.1 |
| c1cnc(-c2nc(CN3CCCC(N4CCCC4)C3)cs2)nc1 (stereo not drawn) | > 50.1 |
| c1cnc(-c2nc(CN3CCCN(Cc4cccs4)CC3)cs2)nc1 | > 50.1 |
| CC(C(=O)NCc1ccnc(N(C)C)c1)n1cccn1 (stereo not drawn) | > 50.1 |
| CC(NCc1ccsc1)c1ccc2c(c1)NC(=O)CO2 (stereo not drawn) | > 50.1 |
| C=C(C)CN1CCC(C(=O)c2cc(F)ccc2F)CC1 | > 50.1 |
| CC(Cn1cccn1)NC(=O)NCCc1cccnc1 (stereo not drawn) | > 50.1 |
| COc1cccc(CNCC2CN(C)CCO2)c1 (stereo not drawn) | > 50.1 |
| Cc1cc(CN2CCCC(Cn3cncn3)C2)on1 (stereo not drawn) | > 50.1 |
| CC(C)OCCN1CCC(N2CCN(C)C2=O)CC1 | > 50.1 |
| CC(NC(=O)NCCCn1ccnc1)c1ccc2c(c1)OCCCO2 (stereo not drawn) | > 50.1 |
| Cn1nccc1C1CCN(Cc2csc(-c3ncccn3)n2)CC1 | > 50.1 |
| c1cnc(-c2nc(CN3CCC(c4ccn[nH]4)CC3)cs2)nc1 | > 50.1 |
| CCCC1CCCN(Cc2csc(-c3cnn(C)c3)n2)CC1 (stereo not drawn) | > 50.1 |

| Compound | IC50 [µM] |
| --- | --- |
| CCCc1nc(CN2CCCC2Cn2cncn2)cs1 (stereo not drawn) | > 50.1 |
| Cc1ccc(N2CCCC(NCc3cscn3)C2)nn1 (stereo not drawn) | > 50.1 |
| c1cnc(-c2nc(CN3CCCC(Cn4cncn4)C3)cs2)nc1 (stereo not drawn) | > 50.1 |
| Cc1nccn1CCCn1cncc1-c1ccc2c(c1)CCCN2C | > 50.1 |
| COc1ccc(OCc2sc(C3(O)CCCNCC3)nc2C)cc1 (stereo not drawn) | > 50.1 |
| COc1ccc(OCCc2sc(C3(O)CCCNCC3)nc2C)cc1 (stereo not drawn) | > 50.1 |
| COc1ccc(C(NCc2ccc(C#N)cc2)C2CC2)cc1 (stereo not drawn) | > 50.1 |
| CC(Cn1ccnc1)NCc1cc(Br)c2c(c1)OCO2 (stereo not drawn) | > 50.1 |
| CCOc1ccc(CNCC(O)c2ccccc2)cc1Cl (stereo not drawn) | 29.6 |
| CN(Cc1ccccc1)C1COC2(CCN(Cc3nccs3)CC2)C1 (stereo not drawn) | > 50.1 |
| O=C(NC1COC2(CCN(Cc3ccccn3)CC2)C1)c1ccccn1 (stereo not drawn) | > 50.1 |
| CCN1CCC2(C=C(C(=O)N(C)C)c3ccccc32)CC1 | > 50.1 |
| Cc1ccc(N2CCC3(CN(CCO)CCC3(F)F)C2)nn1 (stereo not drawn) | > 50.1 |
| OCCN1CCC(F)(F)C2(CCN(c3cnccn3)C2)C1 (stereo not drawn) | > 50.1 |
| Cc1ccc(N2CCC3(CN(Cc4cccs4)CCC3(F)F)C2)nn1 (stereo not drawn) | > 50.1 |
| CNC(=O)[C@@H]1C[C@H]2CN(Cc3ccco3)C[C@H]2N1C | > 50.1 |
| Cc1ccc(CN2CCC(F)(F)C3(CCN(c4cnccn4)C3)C2)o1 (stereo not drawn) | > 50.1 |
| Cc1ccc(N2CCC3(CN(Cc4ccncc4)CCC3(F)F)C2)nn1 (stereo not drawn) | > 50.1 |
| CN1CCN(C2COC3(CCN(Cc4ccsc4)CC3)C2)CC1 (stereo not drawn) | > 50.1 |
| CN1CCN(C2COC3(CCN(Cc4cccs4)CC3)C2)CC1 (stereo not drawn) | > 50.1 |
| c1cncc(COC[C@H]2CC[C@H]3[C@H](CCN3Cc3nccs3)O2)c1 | > 50.1 |
| CN1CCN(C2COC3(CCN(Cc4ccc(F)cc4)CC3)C2)CC1 (stereo not drawn) | > 50.1 |
| Cc1ccc(CN2CCC3(CC2)CC(N2CCN(C)CC2)CO3)s1 (stereo not drawn) | > 50.1 |
| CC1CCCN(Cc2ccnc(-c3cccnc3)n2)C1 (stereo not drawn) | > 50.1 |
